A short description of series [1]: Estimation of log D values (n-octanol/PBS pH 7.4, LC-MS, log Dmax from LOQ). It counts as physicochemical. Conditions: n-octanol/PBS pH 7.4, 25 °C; indicative threshold from LOQ in octanol phase. How it is done:
A phosphate buffered saline (PBS) pH 7.4 was prepared and then saturated with n-octanol. Likewise, an n-octanol solution saturated with pH 7.4 PBS buffer was also prepared. Both solutions were shaken for 24 h, and then left for 24 h in a separating funnel to ensure complete separation of the two phases. This provided an aqueous phase (PBS buffer saturated with n-octanol) and an n-octanol phase (saturated with PBS buffer).
Samples for log D determination were prepared as following: All compounds were dissolved in PBS buffer at a concentration 4 mg/mL, which was used as stock solutions. PBS-saturated n-octanol (1.0 mL), n-octanol-saturated PBS (0.76 mL) and sample stock solution (0.24 mL) were placed into a 4-mL clear glass vial and incubated on Biosan Thermo Shaker TS-100 at 1000 rpm and 25 °C. For optimization of the assay, the incubation time was varied from 5 h to 48 h. […] After incubation samples were centrifugated and left for 30 min to ensure complete separation of the phases. The distribution coefficient was determined by quantification of the compounds both in the aqueous and n-octanol phases. Then, 100 µL of each phase were transferred to 1.5 mL champagne glass vial and evaporated using a GeneVac EZ-2 PLUS evaporation instrument. Before LC-MS analysis samples were diluted with 200 µL MeCN–0.1% aqueous formic acid (1:1, v/v).
LC-MS was performed on Acquity UPLC chromatograph coupled with a MICROMASS QUATTRO micro^TM API tandem mass spectrometer. The mass spectrometer was operated in positive electrospray ionisation mode. Parameter settings were as follows: desolvation gas (N2) flow was 600 L/h; desolvation gas temperature was 400 °C; capillary voltage, 3.30 kV; ion source temperature was 120 °C. Initial data acquisition was carried out in full-scan mode to select the most abundant ions of the individual compounds.
Waters Acquity UPLC column BEH C18 (2.1 × 50 mm, 1.7 µm particle size) was applied for analysis. Acetonitrile and 0.1% aqueous formic acid mixtures were used as mobile phase at a flow rate of 0.4 mL/min with the following gradient: 0.0–2.5 min 5–98% MeCN, 2.5–3.5 min 98% MeCN. Injection volume was 2 µL.
Limit of quantitation (LOQ) was determined using S/N ratio for each compound and used for log Dmax calculations according to the following equation:(2) log Dmax = log (theoretical peak area of n-octanol phase at LOQ concentration/peak area of buffer base) Theoretical peak area at LOQ was calculated according to the calibration curve for each compound.

For series [2], the system named is A. baumannii ATCC 19606. The series is classed as cell-based, Acinetobacter baumannii. The conditions noted are these: ATCC 19606, 20 h. Put shortly:
(§1)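 Broth microdilution in Mueller-Hinton broth with Mg2+ and Ca2+ at 4 mg/L each, inoculum ~5 × 10^5 CFU/mL. Compounds diluted in 0.01% acetic acid, 0.2% BSA (final) using low-binding plastics; MIC read after 20 h at 35 °C (±2 °C) with shaking at 180 rpm.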

Series [3] relates to A. baumannii NMI 3658/17. The series is classed as cell-based, Acinetobacter baumannii. The conditions noted are these: NMI 3658/17, 20 h. In short, it runs like this:
as §1

The nature of series [4]: Determination of hemolytic activity. Conditions: red blood cell suspension in PBS buffer, human red blood cells at 400 µg/mL, 37 °C. It counts as cell-based. In short, it runs like this:
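Fresh human RBCs, PBS-washed, used as 1% suspension with compound at 400 μg/mL final for 60 min at 37 °C with mild agitation, triplicate wells. Released hemoglobin read at OD 405 nm in supernatant; % hemolysis normalized to 1% SDS (100%) and PBS (0%), averages reported.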

Series [5] has as its system S. aureus ATCC 29213. The series is classed as cell-based, Staphylococcus aureus. The conditions noted are these: ATCC 29213, 20 h. Put shortly: as §1

In brackets after ≈: the same amount, converted by molar mass. A value given as a limit tells only on which side of the number the result lay.

The source of these data is article PMC8268887, “Peptide/β-Peptoid Hybrids with Ultrashort PEG-Like Moieties: Effects on Hydrophobicity, Antibacterial Activity and Hemolytic Properties” (International Journal of Molecular Sciences, 2021).

Regarding `NCCCC[C@H](NC(=O)CCN(Cc1ccc(F)cc1)C(=O)[C@H](CCCCN)NC(=O)CCN(Cc1ccc(F)cc1)C(=O)[C@H](CCCCN)NC(=O)COCCOCCNC(=O)CCN(Cc1ccc(F)cc1)C(=O)[C@H](CCCCN)NC(=O)CCN(Cc1ccc(F)cc1)C(=O)[C@H](CCCCN)NC(=O)CCN(Cc1ccc(F)cc1)C(=O)[C@@H](N)CCCCN)C(=O)N(CCC(N)=O)Cc1ccc(F)cc1` [Compound 7, H-[X]3-sPEG2-[X]3-NH2], in series [1], the “log Dmax” value is below −3.650. Also, the “MIC, AB” value in series [2] is listed as 4 µg/mL (≈ 1.99 µM). Also, in series [3], the “MIC, A. baumannii NMI 3658/17” value amounted to 4 µg/mL (≈ 1.99 µM). In series [4], the hemolysis at 60 min was 6.1%.
Regarding `NCCCC[C@H](NC(=O)CCN(Cc1ccc(F)cc1)C(=O)[C@H](CCCCN)NC(=O)CCN(Cc1ccc(F)cc1)C(=O)[C@H](CCCCN)NC(=O)CCOCCOCCOCCOCCNC(=O)CCN(Cc1ccc(F)cc1)C(=O)[C@H](CCCCN)NC(=O)CCN(Cc1ccc(F)cc1)C(=O)[C@H](CCCCN)NC(=O)CCN(Cc1ccc(F)cc1)C(=O)[C@@H](N)CCCCN)C(=O)N(CCC(N)=O)Cc1ccc(F)cc1` [Compound 9, H-[X]3-sPEG4-[X]3-NH2], the “log Dmax” value in series [1] is listed as below −3.627. Moreover, the “MIC, AB” value in series [2] lay in the range of 4 to 8 µg/mL. Moreover, in series [3], the “MIC, A. baumannii NMI 3658/17” value was 4 to 8 µg/mL. Moreover, the “MIC, SA” value in series [5] is given as above 64 µg/mL. The compound further returned a hemolysis at 60 min in series [4] of 7.1%.
`NCCCC[C@H](NC(=O)CCN(Cc1ccc(F)cc1)C(=O)[C@H](CCCCN)NC(=O)CCN(Cc1ccc(F)cc1)C(=O)[C@H](CCCCN)NC(=O)COCCN)C(=O)N(CCC(=O)NCCOCC(=O)N[C@@H](CCCCN)C(=O)N(CCC(=O)N[C@@H](CCCCN)C(=O)N(CCC(=O)N[C@@H](CCCCN)C(=O)N(CCC(=O)NCCOCC(N)=O)Cc1ccc(F)cc1)Cc1ccc(F)cc1)Cc1ccc(F)cc1)Cc1ccc(F)cc1` [Compound 11, H-sPEG1-[X]3-sPEG1-[X]3-sPEG1-NH2]: the “log Dmax” value in series [1] was below −2.876. For the same compound, in series [2], the “MIC, AB” value was 4 to 8 µg/mL. The “MIC, A. baumannii NMI 3658/17” value in series [3] came out at 8 µg/mL (≈ 3.7 µM). In series [5], the “MIC, SA” value is given as above 64 µg/mL. Besides, the hemolysis at 60 min in series [4] is 4.6%.
The matching figures for `NCCCC[C@H](NC(=O)CCN(Cc1ccc(F)cc1)C(=O)[C@H](CCCCN)NC(=O)CCN(Cc1ccc(F)cc1)C(=O)[C@H](CCCCN)NC(=O)CCN(Cc1ccc(F)cc1)C(=O)[C@H](CCCCN)NC(=O)CCN(Cc1ccc(F)cc1)C(=O)[C@H](CCCCN)NC(=O)CCN(Cc1ccc(F)cc1)C(=O)[C@@H](N)CCCCN)C(=O)N(CCC(N)=O)Cc1ccc(F)cc1` [Compound 1, H-[Lys-βNPhe(4-F)]6-NH2]: below −2.662, 8 to 16 µg/mL, 4 µg/mL (≈ 2.15 µM), 16 µg/mL (≈ 8.6 µM) and 6.6%.
The matching figures for `NCCCC[C@H](NC(=O)CCN(Cc1ccc(F)cc1)C(=O)[C@H](CCCCN)NC(=O)COCCOCCNC(=O)CCN(Cc1ccc(F)cc1)C(=O)[C@H](CCCCN)NC(=O)CCN(Cc1ccc(F)cc1)C(=O)[C@H](CCCCN)NC(=O)COCCOCCNC(=O)CCN(Cc1ccc(F)cc1)C(=O)[C@H](CCCCN)NC(=O)CCN(Cc1ccc(F)cc1)C(=O)[C@@H](N)CCCCN)C(=O)N(CCC(N)=O)Cc1ccc(F)cc1` [Compound 16, H-[X]2-sPEG2-[X]2-sPEG2-[X]2-NH2]: below −3.922, 8 µg/mL (≈ 3.72 µM), 4 µg/mL (≈ 1.86 µM), 32 to 64 µg/mL and 5.7%.
As for `NCCCC[C@H](NC(=O)CCN(Cc1ccc(F)cc1)C(=O)[C@H](CCCCN)NC(=O)CCN(Cc1ccc(F)cc1)C(=O)[C@H](CCCCN)NC(=O)COCCOCCOCCN)C(=O)N(CCC(=O)NCCOCCOCCOCC(=O)N[C@@H](CCCCN)C(=O)N(CCC(=O)N[C@@H](CCCCN)C(=O)N(CCC(=O)N[C@@H](CCCCN)C(=O)N(CCC(=O)NCCOCCOCCOCC(N)=O)Cc1ccc(F)cc1)Cc1ccc(F)cc1)Cc1ccc(F)cc1)Cc1ccc(F)cc1` [Compound 13, H-sPEG3-[X]3-sPEG3-[X]3-sPEG3-NH2], in series [1], the “log Dmax” value was below −3.911. For the same compound, the “MIC, AB” value in series [2] was 8 to 16 µg/mL. Besides, in series [3], the “MIC, A. baumannii NMI 3658/17” value came out at 16 µg/mL (≈ 6.59 µM). In addition, the “MIC, SA” value in series [5] is recorded as above 64 µg/mL. The compound also displayed a hemolysis at 60 min in series [4] of 7.8%.
The matching figures for `NCCCC[C@H](NC(=O)CCN(Cc1ccc(F)cc1)C(=O)[C@H](CCCCN)NC(=O)CCN(Cc1ccc(F)cc1)C(=O)[C@H](CCCCN)NC(=O)COCCOCCN)C(=O)N(CCC(=O)NCCOCCOCC(=O)N[C@@H](CCCCN)C(=O)N(CCC(=O)N[C@@H](CCCCN)C(=O)N(CCC(=O)N[C@@H](CCCCN)C(=O)N(CCC(=O)NCCOCCOCC(N)=O)Cc1ccc(F)cc1)Cc1ccc(F)cc1)Cc1ccc(F)cc1)Cc1ccc(F)cc1` [Compound 12, H-sPEG2-[X]3-sPEG2-[X]3-sPEG2-NH2]: below −3.147, 8 to 16 µg/mL, 16 µg/mL (≈ 6.97 µM), above 64 µg/mL and 8.1%.
In the case of `NCCCC[C@H](NC(=O)CCN(Cc1ccc(F)cc1)C(=O)[C@H](CCCCN)NC(=O)CCN(Cc1ccc(F)cc1)C(=O)[C@H](CCCCN)NC(=O)CCOCCOCCOCCOCCN)C(=O)N(CCC(=O)NCCOCCOCCOCCOCCC(=O)N[C@@H](CCCCN)C(=O)N(CCC(=O)N[C@@H](CCCCN)C(=O)N(CCC(=O)N[C@@H](CCCCN)C(=O)N(CCC(=O)NCCOCCOCCOCCOCCC(N)=O)Cc1ccc(F)cc1)Cc1ccc(F)cc1)Cc1ccc(F)cc1)Cc1ccc(F)cc1` [Compound 14, H-sPEG4-[X]3-sPEG4-[X]3-sPEG4-NH2], in series [1], the “log Dmax” value is below −2.883. Also, the “MIC, AB” value in series [2] worked out at 16 µg/mL (≈ 6.15 µM). Further, the “MIC, A. baumannii NMI 3658/17” value in series [3] was found to be 32 µg/mL (≈ 12.3 µM). Also, the “MIC, SA” value in series [5] is above 64 µg/mL. In series [4], the hemolysis at 60 min was 9%.
For `NCCCC[C@H](NC(=O)CCN(Cc1ccc(F)cc1)C(=O)[C@H](CCCCN)NC(=O)COCCNC(=O)CCN(Cc1ccc(F)cc1)C(=O)[C@H](CCCCN)NC(=O)CCN(Cc1ccc(F)cc1)C(=O)[C@H](CCCCN)NC(=O)COCCNC(=O)CCN(Cc1ccc(F)cc1)C(=O)[C@H](CCCCN)NC(=O)CCN(Cc1ccc(F)cc1)C(=O)[C@@H](N)CCCCN)C(=O)N(CCC(N)=O)Cc1ccc(F)cc1` [Compound 15, H-[X]2-sPEG1-[X]2-sPEG1-[X]2-NH2] the same measures were below −3.180, 8 µg/mL (≈ 3.88 µM), 4 µg/mL (≈ 1.94 µM), above 64 µg/mL and 4.8%.
For `NCCCC[C@H](NC(=O)CCN(Cc1ccc(F)cc1)C(=O)[C@H](CCCCN)NC(=O)CCN(Cc1ccc(F)cc1)C(=O)[C@H](CCCCN)NC(=O)CCOCCOCCOCCOCCOCCOCCNC(=O)CCN(Cc1ccc(F)cc1)C(=O)[C@H](CCCCN)NC(=O)CCN(Cc1ccc(F)cc1)C(=O)[C@H](CCCCN)NC(=O)CCN(Cc1ccc(F)cc1)C(=O)[C@@H](N)CCCCN)C(=O)N(CCC(N)=O)Cc1ccc(F)cc1` [Compound 10, H-[X]3-sPEG6-[X]3-NH2], the “log Dmax” value in series [1] is below −2.994. In addition, in series [2], the “MIC against A. baumannii” value stood at 1.3 µM (≈ 2.86 µg/mL) and the “MIC, AB” value was found to be 4 µg/mL (≈ 1.82 µM). For the same compound, the “MIC, A. baumannii NMI 3658/17” value in series [3] turned out to be 4 µg/mL (≈ 1.82 µM). Further, the “MIC, SA” value in series [5] is above 64 µg/mL. Besides, in series [4], the hemolysis at 60 min turned out to be 6.3%.
